Read-outs that look alike come from different tables or passages of the source.
What was measured:
[1] = tested on: IDH1/R132H in U87MG glioma cells; assay: U87MG/IDH1R132H cell assay (intracellular 2HG); type: cell-based; conditions: Homo sapiens, U-87 MG, 1 hour + 18 hours incubation, read-out: U87MG (IDH1/R132H 2-hydroxyglutarate IC50)
Experimental: To test the cellular inhibition of IDH1 mutant R132C, the fibrosarcoma cell line HT1080 (purchased from ATCC) is used. For testing cell-based inhibition of the R132H mutation, the U87MG glioma cell line (ATCC) was stably transfected with a DNA construct expressing the R132H mutant enzyme.
Cells are plated in poly-D-lys coated 96 well plates (12,000 cells/well) 18-24 hours previous to treatment with compounds. Four hours prior to compound treatment, cells are glutamine-starved by removing normal media and replacing with glutamine-free media. Following starvation, cells are then treated with different concentrations of test compounds (20 μM to 1 nM) dissolved in glutamine free media containing DMSO at a final concentration of 0.2%. The initial compound incubation is for 1 hour at 37° C./5% CO2. After 1 hour, glutamine is added to a final 2 mM concentration and the treated cells are then incubated for a further 18 hours at 37° C./5% CO2. Intracellular 2HG is analyzed in cell lysates obtained after media removal and treatment with lysis buffer (25 mM Tris-HCl pH 7.5, 150 mM NaCl, 1 mM EDTA, 1 mM EGTA/1% Triton-X 100). Cell lysates are conserved at −80° C. until processing. For analyte extraction, an aliquot of thawed lysate is transferred to a deep 96-well plate and treated with cold MeOH containing d5-3HG as an internal standard followed by chloroform and H2O (1:4:3:2). The upper phase is collected after separation and injected in HPLC to separate 2HG (and internal standard) using hydrophilic interaction (HILIC) chromatography coupled to MS/MS detection in a 6460 triple quadrupole mass spectrometer. Percent inhibition for each individual sample is obtained after normalizing calculated 2HG concentration to maximum and minimum references obtained in the presence and in the absence of glutamine during cell treatment with compounds. IC50 values are obtained from individual % inhibition using a sigmoidal dose-response 4-parameter equation. These calculations are carried out automatically using Activity Base (IDBS) or Screener (Genedata) data analysis programs.

IDH2 Wild-Type = target: T1, IDH2 Wild-Type (Homo sapiens, UniProt P48735); assay: Biochemical assay for wild-type IDH2 enzyme (αKG by LC-MS); conditions: mean ± standard deviation of the mean
T1 construct: His-tag (N); made in house; host or cells: E. coli
T1 sequence (P48735 40-452): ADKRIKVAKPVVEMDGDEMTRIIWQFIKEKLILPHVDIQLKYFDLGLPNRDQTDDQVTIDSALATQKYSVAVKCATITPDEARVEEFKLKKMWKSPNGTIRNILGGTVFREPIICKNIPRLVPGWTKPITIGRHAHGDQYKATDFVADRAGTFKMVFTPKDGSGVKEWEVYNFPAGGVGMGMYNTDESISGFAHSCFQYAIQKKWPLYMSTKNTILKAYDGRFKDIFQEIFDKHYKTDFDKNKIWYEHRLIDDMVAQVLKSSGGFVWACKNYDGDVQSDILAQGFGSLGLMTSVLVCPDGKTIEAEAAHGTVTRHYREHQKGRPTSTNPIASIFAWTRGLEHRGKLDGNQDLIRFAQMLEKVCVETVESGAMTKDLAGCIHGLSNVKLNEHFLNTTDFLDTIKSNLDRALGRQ
Experimental: IDH1 and IDH2 enzymes catalyze the conversion of isocitrate to αKG. Wild-type IDH1 (National Center for Biotechnology Information, Accession: NP_001269316.1) and IDH2 (National Center for Biotechnology Information, Accession: EAX02082.1) proteins containing N-terminal His-tag are expressed in E. coli and purified using nickel affinity chromatography. The enzyme assays are carried out in V-bottom 96 well polypropylene plates containing 100 mM Tris-HCl buffer at pH 7.5, 1 mM DTT, 0.005% TRITON™ X-100, 120 mM NaCl. For the IDH1 wild-type assay isocitrate, NADP^+ and MnCl2 are included at the concentrations of 85 μM, 50 μuM and 20 μM respectively. For the IDH2 wild-type assay isocitrate, NADP^+ and MnCl2 are included at the concentrations of 30 μM, 50 μM and 10 μM respectively. Inhibitors dissolved in a DMSO stock solution are diluted in the reaction mixture at a final DMSO concentration of 4%. The enzyme assay is terminated (quenched) by adding ACN (50:50) containing d6-2-ketopentanedioic acid (d6-αKG) as an internal standard for mass spectrometry analysis. Ten microliters of reaction mixture is combined with 100 μL of water, 50 μL of 1 M O-benzylhydroxylamine in pyridine buffer (8.6% pyridine, pH 5), and 50 μL of 1 M N-(3-dimethylaminopropyl)-N-ethylcarbodiimide hydrochloride (EDC) in pyridine buffer. Following derivatization at room temperature for one hour, samples are extracted with 600 μL of EtOAc. Four hundred […] of the upper layer is removed, dried under heated nitrogen and reconstituted with 100 μL of MeOH/water (1:1). Ten μL of derivatized sample is injected onto an LC-MS system consisting of a Shimadzu Prominence 20A HPLC system and a The Thermo Quantum Ultra™ triple quadrupole mass spectrometer. Analytes are separated on a Waters XBridge™ C18 column (2.1×50 mm, […]) with a flow rate of 0.6 mL/minute. Mobile phase A is 0.1% formic acid in water and mobile phase B is MeOH. The αKG signal detected is transformed into analyte concentration using a calibration curve generated using known αKG concentrations. […] IC50 values are obtained from the individual % inhibition values at different compound concentrations using a 4-parameter equation. These calculations are carried out using Activity Base (IDBS) or Screener (Genedata) data analysis programs.

## C=CC(=O)N1CC(COc2ccc([C@H](C)Nc3ncc4c(n3)N(CC)C(=O)OC4)cc2)C1 [Example 17, 1-Ethyl-7-[[(1S)-1-[4-[(1-prop-2-enoylazetidin-3-yl)methoxy]phenyl]ethyl]amino]-4H-pyrimido[4,5-d][1,3]oxazin-2-one]
[1]; 19 h
  IC50: 6.75 ± 1.13 nM
IDH2 Wild-Type
  IC50: 950 ± 1290 nM

## C=CC(=O)N1CCN(Cc2ccc([C@H](C)Nc3ncc4c(n3)N(C)C(=O)OC4)cc2)CC1 [Example 19, 1-Methyl-7-[[(1S)-1-[4-[(4-prop-2-enoylpiperazin-1-yl)methyl]phenyl]ethyl]amino]-4H-pyrimido[4,5-d][1,3]oxazin-2-one]
[1]
  IC50: 44.9 ± 22.4 nM
IDH2 Wild-Type
  IC50: 28700 ± 1500 nM

## C=CC(=O)N1CCN(Cc2ccc([C@H](C)Nc3ncc4c(n3)N(CC(F)F)C(=O)OC4)cc2)CC1 [Example 20, 1-(2,2-difluoroethyl)-7-[[(1S)-1-[4-[(4-prop-2-enoylpiperazin-1-yl)methyl]phenyl]ethyl]amino]-4H-pyrimido[4,5-d][1,3]oxazin-2-one]
[1]; 19 h
  IC50: 31.9 ± 11.7 nM
IDH2 Wild-Type
  IC50: 12500 ± 400 nM

## C=CC(=O)N1CCN(Cc2ccc([C@H](C)Nc3ncc4c(n3)N(CCF)C(=O)OC4)cc2)CC1 [Example 21, 1-(2-fluoroethyl)-7-[[(1S)-1-[4-[(4-prop-2-enoylpiperazin-1-yl)methyl]phenyl]ethyl]amino]-4H-pyrimido[4,5-d][1,3]oxazin-2-one]
[1]; 19 h
  IC50: 24.6 ± 15.9 nM
IDH2 Wild-Type
  IC50: 31100 ± 2100 nM
